In assay [1] the target is T1, HCV NS3/4A protease complex (BMS strain) (UniProt P27958).
T1 construct: other: HCV NS3/4A enzyme assay; said of H77 and J4L6S; fused on or other part: Three-lysine solubilising tail at the NS4A C-terminus and a His tag from pET21b (Ni-NTA purification), for the H77 and J4L6S constructs
The assay can be described thus: FRET peptide assay to monitor HCV NS3/4A proteolytic activity, BMS strain. To be noted: read-out: IC50 Range; HCV NS3/4A enzyme assay; Table 1. Format: biochemical, Hepatitis C virus (genotype 1a). The gist of the method: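 Recombinant NS3/4A (BMS strain, genotype 1a, >90% pure) cleaving FRET depsipeptide RET S1 (EDANS/DABCYL) at 2 μM; enzyme 2-3 nM (300 pM with 50 μg/ml BSA for sensitive runs). Buffer 50 mM HEPES pH 7.5, 0.15 M NaCl, 0.1% Triton, 15% glycerol, 10 mM βME; fluorescence followed in real time.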

For assay [2], the system named is HCV replicon in HUH-7 cells. The assay can be described thus: HCV replicon FRET assay. It is filed as cell-based, Hepatitis C virus (strain 1b). To be noted: Hepatitis C virus, Huh-7, read-out: EC50 Range, HCV replicon cell assay; Table 1. The gist of the method: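 HUH-7 cells carrying a genotype 1b subgenomic neo replicon (NS3–NS5B) treated 4 days at 37 °C with compound in 0.5% DMSO final. CC50 from alamarBlue fluorescence after 4 h; cells then lysed with FRET protease substrate at 10 μM final and read kinetically at 340/490 nm to give EC50.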
(In general: In antiviral work, replicon cells carry a viral genome segment that copies itself.)

T1 sequence (P27958 1027-1657, one chain of several): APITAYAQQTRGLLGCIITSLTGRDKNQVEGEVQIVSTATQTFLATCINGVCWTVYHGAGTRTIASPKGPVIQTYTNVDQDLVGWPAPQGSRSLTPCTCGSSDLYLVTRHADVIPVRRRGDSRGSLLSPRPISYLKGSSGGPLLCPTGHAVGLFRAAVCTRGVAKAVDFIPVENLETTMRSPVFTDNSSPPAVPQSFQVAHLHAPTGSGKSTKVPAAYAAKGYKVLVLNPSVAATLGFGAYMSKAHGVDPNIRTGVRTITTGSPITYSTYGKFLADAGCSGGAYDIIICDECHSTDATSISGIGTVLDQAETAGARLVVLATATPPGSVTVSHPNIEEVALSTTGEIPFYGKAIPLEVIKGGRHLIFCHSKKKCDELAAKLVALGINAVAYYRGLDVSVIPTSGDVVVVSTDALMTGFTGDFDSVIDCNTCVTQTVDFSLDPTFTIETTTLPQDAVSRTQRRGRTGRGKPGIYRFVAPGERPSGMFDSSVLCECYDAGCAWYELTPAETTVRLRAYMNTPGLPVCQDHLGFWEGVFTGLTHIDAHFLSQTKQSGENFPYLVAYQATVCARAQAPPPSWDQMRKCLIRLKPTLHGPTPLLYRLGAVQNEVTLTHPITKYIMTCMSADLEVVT

Turning to `C=C[C@@H]1C[C@]1(NC(=O)[C@@H]1C[C@@H](Oc2nc(-c3ccc(OC(F)(F)F)cc3)cc3cc(OC)ccc23)CN1C(=O)[C@@H](O)[C@@H](C)CC)C(=O)NS(=O)(=O)C1CC1` [Example 61Compound 61], in assay [1], the 50% inhibitory concentration (IC50) (in general, the midpoint of a concentration-inhibition curve) was 100 to 1000 nM. Further, in assay [2], the half-maximal effective concentration (EC50) (usually the concentration that produces a half-maximal response) lay in the range of 500 to 5000 nM.
The corresponding values for `C=C[C@@H]1C[C@]1(NC(=O)[C@@H]1C[C@@H](Oc2nc(-c3ccc(OC(F)(F)F)cc3)cc3cc(OC)ccc23)CN1C(=O)[C@@H](O)C1CCCCC1)C(=O)NS(=O)(=O)C1CC1` [Example 62Compound 62] are 100 to 1000 nM and 500 to 5000 nM.
For `C=C[C@@H]1C[C@]1(NC(=O)[C@@H]1C[C@@H](Oc2nc(-c3ccc(OC(F)(F)F)cc3)cc3cc(OC)ccc23)CN1C(=O)[C@@H](O)C(C)(C)COC)C(=O)NS(=O)(=O)C1CC1` [Example 63Compound 63], the IC50 in assay [1] was under 100 nM. Also, the EC50 in assay [2] fell in the range of 500 to 5000 nM.

The record behind these values is patent US7323447B2, “Hepatitis C virus inhibitors” (Bristol-Myers Squibb Company, priority 2005, dated 2008).
